The results in this text go back to US11629133B2, “Perfluoroaminoolefins and methods of making and using the same” (3M INNOVATIVE PROPERTIES COMPANY, priority 2018, dated 2023).

Type in all cases: physicochemical
Series [1] in a line: Pour point, determined visually. The note with it: lowest temperature at which sample flows within 5 sec held horizontally. The procedure:
[…] of the sample was placed in a vial and cooled in a liquid nitrogen-cooled pentane bath until it solidified. The sample was then allowed to warm slowly in the pentane bath by removal of the liquid nitrogen cooling source (typically an increase of 1-2° C./minute) and observed every 3-5° C.

Series [2] is described as follows: Dielectric constant per ASTM D150-11. As to conditions: measured at 1 kHz. The procedure: The dielectric constant (tested per ASTM D150-11) of PE-1 was measured. The dielectric constant measured at 1 kHz was 1.98.
Series [3] in a line: Thermal stability of PE-1 with absorbents, purity by GC-FID. On the procedure:
GC-FID analysis was carried out on an Agilent Technologies 7890B GC System (Santa Clara Calif.) equipped with a Restek RtX-200 gas chromatography column (Bellefonte, Pa.) and helium carrier gas. Once material was injected into the column, the following temperature sequence was executed: 5 min hold at 40° C., 10° C./minute temperature increase over the span of 21 min to reach a final temperature of 250° C., and then a 15 min hold at 250° C. Data analysis by use of Agilent Open LAB CDSA ChemStation software enabled the determination of product purities and GC yields.
Thermal stability was measured by charging 1.0 g of PE-1 into glass vials and then adding a weighed amount of absorbent. The samples were stirred for 24 hours at 60° C., allowed to cool, and then analyzed by GC-FID for decomposition and purity changes.

As for “2,2,3,3,4,4,5,5-octafluoro-1-(perfluoropent-2-en-3-yl)pyrrolidine and 2,2,3,3,4,4,5,5-octafluoro-1-(perfluoropent-2-en-2-yl)pyrrolidine [PE-4]”, in series [1], the Pour point was −90 °C.
Same read-out and setting: the result for `FC1=C(N2C(F)(F)C(F)(F)OC(F)(F)C2(F)F)C(F)(F)C(F)(F)C1(F)F` [PE-3, 2,2,3,3,5,5,6,6-octafluoro-4-(perfluorocyclopent-1-en-1-yl)morpholine] reads −49 °C; that for `FC1=C(N2C(F)(F)C(F)(F)C(F)(F)C2(F)F)C(F)(F)C(F)(F)C1(F)F` [PE-2, 2,2,3,3,4,4,5,5-octafluoro-1-(perfluorocyclopent-1-en-1-yl)pyrrolidine], −33 °C.
In the case of `FC1=C(N2C(F)(F)C(F)(F)C(F)(F)C2(F)F)C(F)(F)C(F)(F)C(F)(F)C1(F)F` [PE-1, 2,2,3,3,4,4,5,5-octafluoro-1-(perfluorocyclohex-1-en-1-yl)pyrrolidine], in series [1], the Pour point was −34 °C. Further, in series [2], the dielectric constant was 1.98. For the same molecule, the “Purity, %” value in series [3] (4 Angstrom Molecular Sieves, stirred 24 hours at 60° C.) came to 97.3%; in series [3] (Activated Carbon, stirred 24 hours at 60° C.) it was 97.7%; in series [3] (Basic Alumina, stirred 24 hours at 60° C.) it was 97.6%; in series [3] (K2CO3, stirred 24 hours at 60° C.) it was 97.6%; in series [3] (No Absorbent, stirred 24 hours at 60° C.), 97.7%; in series [3] (Silica Gel, stirred 24 hours at 60° C.), 97.7%.
